US11718622B2, “Heterocyclic adenosine receptor antagonists” (Exelixis, Inc., priority 2020, dated 2023)

Experiments:
[1] = biological target: Adenosine A2a (ADORA2A) receptor (Homo sapiens (Human), UniProt P29274); experiment: ADORA2A Receptor Binding Assay; settings: radioligand binding, membrane stock
Outline: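 Test compounds incubated with A2a receptor membranes and a ³H-labelled radioligand for 2 hours at room temperature, then filtered through PEI-presoaked GF/C plates and washed. Filter-bound ³H counted by scintillation; % inhibition calculated from background-subtracted signal relative to high control.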

[2] = biological target: Adenosine A2B (ADORA2B) receptor (Homo sapiens (Human), UniProt P29275); experiment: ADORA2B Receptor Binding Assay; settings: radioligand binding, membrane stock
Sequence of Adenosine A2B (ADORA2B) receptor (P29275 whole entry): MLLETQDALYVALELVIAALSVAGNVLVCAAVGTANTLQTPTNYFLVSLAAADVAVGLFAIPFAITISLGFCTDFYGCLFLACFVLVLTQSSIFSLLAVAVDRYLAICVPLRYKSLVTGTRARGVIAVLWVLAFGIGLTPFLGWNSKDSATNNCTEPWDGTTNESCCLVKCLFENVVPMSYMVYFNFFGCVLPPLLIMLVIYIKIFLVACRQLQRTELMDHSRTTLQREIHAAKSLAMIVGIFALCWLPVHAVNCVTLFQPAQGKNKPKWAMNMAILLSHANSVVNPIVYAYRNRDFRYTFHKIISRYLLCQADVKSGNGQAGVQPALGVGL
Outline: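 Radioligand competition binding on human A2B receptor membranes, 1 h at room temperature, then filtration through BSA-presoaked GF/C filters and ³H counting by scintillation. Inhibition expressed as % of high control after background subtraction.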

Sequence of Adenosine A2a (ADORA2A) receptor (P29274 whole entry): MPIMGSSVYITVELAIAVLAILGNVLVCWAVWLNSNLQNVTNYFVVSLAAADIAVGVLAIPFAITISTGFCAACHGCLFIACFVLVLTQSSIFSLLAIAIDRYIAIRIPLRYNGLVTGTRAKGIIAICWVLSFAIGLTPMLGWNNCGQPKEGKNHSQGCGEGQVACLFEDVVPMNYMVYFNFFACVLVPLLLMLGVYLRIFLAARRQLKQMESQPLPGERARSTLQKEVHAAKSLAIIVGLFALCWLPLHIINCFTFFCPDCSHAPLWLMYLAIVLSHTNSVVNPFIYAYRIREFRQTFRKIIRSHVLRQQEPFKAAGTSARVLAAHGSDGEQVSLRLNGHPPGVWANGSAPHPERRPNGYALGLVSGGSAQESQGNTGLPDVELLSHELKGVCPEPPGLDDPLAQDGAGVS

Row | SMILES | IC50 [1] [nM] | IC50 [2] [nM]
1 | Cc1ccc(-c2nc3[nH]c(C(C)(C)O)cc3c3nc(C(C)C)nn23)o1 [Compound 162, 2-[7-(5-methylfuran-2-yl)-4-propan-2-yl-3,5,6,8,10-pentazatricyclo[7.3.0.0^2,6]dodeca-1(9),2,4,7,11-pentaen-11-yl]propan-2-ol] | < 10 | 10 to 100
2 | COc1ccc(-c2nc(NC(=O)OC(C)(C)C)cc3nc(C)nn23)cc1 [Compound 112, tert-butyl N-[5-(4-methoxyphenyl)-2-methyl-[1,2,4]triazolo[1,5-c]pyrimidin-7-yl]carbamate] | > 1000 | > 1000
3 | Cc1cn2c(Br)c(N)nc(-c3ccc(F)cc3)c2n1 [Compound 206, 5-bromo-8-(4-fluorophenyl)-2-methylimidazo[1,2-a]pyrazin-6-amine] | 100 to 1000 | 100 to 1000
4 | CC(=O)Nc1cc2nc(C3CC3)nn2c(-c2ccc(C)o2)n1 [Compound 61, N-[2-cyclopropyl-5-(5-methylfuran-2-yl)-[1,2,4]triazolo[1,5-c]pyrimidin-7-yl]acetamide] | < 10 | 10 to 100
5 | O=C(Nc1cc2nc(C3COC3)nn2c(-c2ccco2)n1)C1CC1 [Compound 92, N-[5-(furan-2-yl)-2-(oxetan-3-yl)-[1,2,4]triazolo[1,5-c]pyrimidin-7-yl]cyclopropanecarboxamide] | < 10 | 10 to 100
6 | Cc1nc2c(-c3ccccc3)nc(N)c(Cl)n2n1 [Compound 176, 5-chloro-2-methyl-8-phenyl-[1,2,4]triazolo[1,5-a]pyrazin-6-amine] | < 10 | < 10
7 | Cc1nc2c(F)c(N)nc(-c3ccc(C)o3)n2n1 [Compound 30, 8-fluoro-2-methyl-5-(5-methylfuran-2-yl)-[1,2,4]triazolo[1,5-c]pyrimidin-7-amine] | < 10 | 10 to 100
8 | COc1ccc(Cc2nc3cc(NC(=O)C4CC4)nc(-c4ccc(C)o4)n3n2)cc1 [Compound 4] | < 10 | < 10
9 | Cc1nc2cc(NC(=O)C(F)(F)F)nc(-c3ccco3)n2n1 [Compound 143, 2,2,2-trifluoro-N-[5-(furan-2-yl)-2-methyl-[1,2,4]triazolo[1,5-c]pyrimidin-7-yl]acetamide] | 10 to 100 | 100 to 1000
10 | Cc1nc2cc(N)nc(-c3ccc(C)o3)n2n1 [Compound 1, 2-Methyl-5-(5-methylfuran-2-yl)-[1,2,4]triazolo[1,5-c]pyrimidin-7-amine] | < 10 | 10 to 100
11 | Cc1nc2cc(NC(=O)OC(C)(C)C)nc(-c3ccc(S(C)(=O)=O)cc3)n2n1 [Compound 100, tert-butyl N-[2-methyl-5-(4-methylsulfonylphenyl)-[1,2,4]triazolo[1,5-c]pyrimidin-7-yl]carbamate] | > 1000 | > 1000
12 | Cc1nc2c(C#N)c(N)nc(-c3ccc(C)o3)n2n1 [Compound 26, 7-amino-2-methyl-5-(5-methylfuran-2-yl)-[1,2,4]triazolo[1,5-c]pyrimidine-8-carbonitrile] | < 10 | < 10
13 | Cc1nc2cc(NC(=O)OC(C)(C)C)nc(-c3ccc(S(=O)(=O)N(C)C)cc3)n2n1 [Compound 118, tert-butyl N-[5-[4-(dimethylsulfamoyl)phenyl]-2-methyl-[1,2,4]triazolo[1,5-c]pyrimidin-7-yl]carbamate] | > 1000 | > 1000
14 | Cc1ccc(-c2nc(NC(=O)C3CC3)cn3nc(N)nc23)o1 [Compound 187, N-[2-amino-8-(5-methylfuran-2-yl)-[1,2,4]triazolo[1,5-a]pyrazin-6-yl]cyclopropanecarboxamide] | < 10 | < 10
15 | Cc1nc2c(Cl)c(N)nc(-c3ccccn3)n2n1 [Compound 74, 8-chloro-2-methyl-5-pyridin-2-yl-[1,2,4]triazolo[1,5-c]pyrimidin-7-amine] | 10 to 100 | > 1000
16 | Nc1nc(-c2ccccc2)c2nc(C(F)(F)F)nn2c1Cl [Compound 178, 5-chloro-8-phenyl-2-(trifluoromethyl)-[1,2,4]triazolo[1,5-a]pyrazin-6-amine] | < 10 | < 10
17 | Cc1cn2c(Cl)c(N)nc(-c3ccccc3)c2n1 [Compound 201, 5-chloro-2-methyl-8-phenylimidazo[1,2-a]pyrazin-6-amine] | 10 to 100 | 100 to 1000
18 | Cc1cn2cc(NC(=O)C3CC3)nc(-c3ccc(C)o3)c2n1 [Compound 199, N-[2-methyl-8-(5-methylfuran-2-yl)imidazo[1,2-a]pyrazin-6-yl]cyclopropanecarboxamide] | < 10 | 10 to 100
19 | Cc1ccc(-c2nc(NC(=O)C3CC3)cc3nc(C(C)C)nn23)o1 [Compound 12, N-[5-(5-methylfuran-2-yl)-2-propan-2-yl-[1,2,4]triazolo[1,5-c]pyrimidin-7-yl]cyclopropanecarboxamide] | < 10 | < 10
20 | Cc1cn2cc(NS(C)(=O)=O)nc(-c3ccco3)c2n1 [Compound 224, N-[8-(furan-2-yl)-2-methylimidazo[1,2-a]pyrazin-6-yl]methanesulfonamide] | 100 to 1000 | > 1000
21 | CC(=O)Nc1cc2nc(C3COC3)nn2c(-c2ccc(C)o2)n1 [Compound 109, N-[5-(5-methylfuran-2-yl)-2-(oxetan-3-yl)-[1,2,4]triazolo[1,5-c]pyrimidin-7-yl]acetamide] | < 10 | 10 to 100
